Values after ≈ are worked out from the molar mass of the structure shown. Values joined by “and” are separate entries in the source; they are usually repeats but may differ in a detail not shown here. Identical values can stand only once.
How the values were obtained:
[1] = molecular target: 3',5'-cyclic-AMP phosphodiesterase 4D (Homo sapiens, UniProt Q08499)
Description: Inhibition of full length human PDE4D2 expressed in Escherichia coli BL21 by liquid scintillation counting

[2] = molecular target: High affinity cGMP-specific 3',5'-cyclic phosphodiesterase 9A (Homo sapiens, UniProt O76083); experiment: Inhibition of human cloned PDE9A2 expressed in Escherichia coli BL21 by liquid scintillation counting
[3] = molecular target: High affinity 3',5'-cyclic-AMP phosphodiesterase 7A (Homo sapiens, UniProt Q13946); experiment: Inhibition of human cloned PDE7A1 catalytic domain expressed in Escherichia coli BL21 by liquid scintillation counting
[4] = molecular target: cGMP-specific 3',5'-cyclic phosphodiesterase (Homo sapiens, UniProt O76074); experiment: Inhibition of human cloned PDE5A1 expressed in Escherichia coli BL21 by liquid scintillation counting
[5] = molecular target: cGMP-dependent 3',5'-cyclic phosphodiesterase (Homo sapiens, UniProt O00408); experiment: Inhibition of human cloned PDE2A3 expressed in Escherichia coli BL21 by liquid scintillation counting
PBMC = experiment: Inhibition of LPS-induced TNFalpha production in human PBMC; format: functional, cell-based
[6] = Solubility in heavy water; format: physicochemical

Sequence of High affinity cGMP-specific 3',5'-cyclic phosphodiesterase 9A (O76083 whole entry, the tested form may be a part): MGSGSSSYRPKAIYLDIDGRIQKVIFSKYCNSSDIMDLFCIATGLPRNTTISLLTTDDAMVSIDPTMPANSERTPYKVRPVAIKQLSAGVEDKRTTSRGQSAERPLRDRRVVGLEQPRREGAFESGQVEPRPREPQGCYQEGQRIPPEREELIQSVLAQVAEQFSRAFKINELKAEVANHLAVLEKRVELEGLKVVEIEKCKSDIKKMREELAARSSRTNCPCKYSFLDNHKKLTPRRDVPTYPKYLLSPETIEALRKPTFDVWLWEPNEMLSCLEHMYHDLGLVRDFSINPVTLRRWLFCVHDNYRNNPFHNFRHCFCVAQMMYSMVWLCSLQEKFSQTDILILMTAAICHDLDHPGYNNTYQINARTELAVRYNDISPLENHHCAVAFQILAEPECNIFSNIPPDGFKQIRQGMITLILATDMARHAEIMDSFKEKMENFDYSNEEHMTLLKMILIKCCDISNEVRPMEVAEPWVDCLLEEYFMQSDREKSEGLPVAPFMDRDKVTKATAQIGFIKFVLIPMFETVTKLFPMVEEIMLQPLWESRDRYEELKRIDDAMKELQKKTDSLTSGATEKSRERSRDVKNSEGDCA
Sequence of cGMP-dependent 3',5'-cyclic phosphodiesterase (O00408 whole entry): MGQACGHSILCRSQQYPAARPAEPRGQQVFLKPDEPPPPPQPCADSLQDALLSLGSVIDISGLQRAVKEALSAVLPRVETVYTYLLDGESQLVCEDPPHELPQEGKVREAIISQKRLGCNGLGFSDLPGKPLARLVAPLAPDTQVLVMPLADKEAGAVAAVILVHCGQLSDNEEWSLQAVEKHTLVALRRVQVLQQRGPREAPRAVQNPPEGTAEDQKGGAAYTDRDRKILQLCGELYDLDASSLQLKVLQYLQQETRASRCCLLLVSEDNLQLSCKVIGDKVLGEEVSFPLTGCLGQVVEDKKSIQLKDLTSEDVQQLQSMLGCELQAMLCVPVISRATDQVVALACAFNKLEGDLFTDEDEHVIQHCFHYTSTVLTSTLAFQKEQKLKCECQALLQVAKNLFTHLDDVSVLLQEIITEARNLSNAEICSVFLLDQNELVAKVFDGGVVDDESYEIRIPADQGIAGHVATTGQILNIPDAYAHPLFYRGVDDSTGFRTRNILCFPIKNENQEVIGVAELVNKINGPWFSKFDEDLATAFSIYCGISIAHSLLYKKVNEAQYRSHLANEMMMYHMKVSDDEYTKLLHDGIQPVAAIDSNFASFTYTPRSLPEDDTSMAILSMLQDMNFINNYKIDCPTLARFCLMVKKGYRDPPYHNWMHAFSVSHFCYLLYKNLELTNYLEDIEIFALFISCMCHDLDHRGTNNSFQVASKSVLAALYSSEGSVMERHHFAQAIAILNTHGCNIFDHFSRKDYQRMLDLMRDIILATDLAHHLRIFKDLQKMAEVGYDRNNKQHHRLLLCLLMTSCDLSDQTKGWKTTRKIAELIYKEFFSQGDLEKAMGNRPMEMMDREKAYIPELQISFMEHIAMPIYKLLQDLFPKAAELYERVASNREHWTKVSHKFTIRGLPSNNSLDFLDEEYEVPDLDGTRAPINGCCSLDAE
Sequence of High affinity 3',5'-cyclic-AMP phosphodiesterase 7A (Q13946 whole entry, the tested form may be a part): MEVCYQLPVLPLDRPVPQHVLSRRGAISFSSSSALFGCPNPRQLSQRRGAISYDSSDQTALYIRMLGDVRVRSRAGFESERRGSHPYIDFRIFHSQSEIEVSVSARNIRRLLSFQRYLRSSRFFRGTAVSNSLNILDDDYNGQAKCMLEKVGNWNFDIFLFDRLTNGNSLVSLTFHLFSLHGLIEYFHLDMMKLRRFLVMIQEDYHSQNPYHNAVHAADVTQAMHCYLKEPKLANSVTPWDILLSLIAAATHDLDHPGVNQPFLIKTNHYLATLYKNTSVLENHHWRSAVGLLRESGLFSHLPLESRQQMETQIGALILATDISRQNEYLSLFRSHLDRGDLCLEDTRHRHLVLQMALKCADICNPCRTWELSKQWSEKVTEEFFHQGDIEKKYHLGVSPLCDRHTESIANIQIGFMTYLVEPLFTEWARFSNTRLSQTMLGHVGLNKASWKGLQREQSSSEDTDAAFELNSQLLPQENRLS
Sequence of 3',5'-cyclic-AMP phosphodiesterase 4D (Q08499 whole entry): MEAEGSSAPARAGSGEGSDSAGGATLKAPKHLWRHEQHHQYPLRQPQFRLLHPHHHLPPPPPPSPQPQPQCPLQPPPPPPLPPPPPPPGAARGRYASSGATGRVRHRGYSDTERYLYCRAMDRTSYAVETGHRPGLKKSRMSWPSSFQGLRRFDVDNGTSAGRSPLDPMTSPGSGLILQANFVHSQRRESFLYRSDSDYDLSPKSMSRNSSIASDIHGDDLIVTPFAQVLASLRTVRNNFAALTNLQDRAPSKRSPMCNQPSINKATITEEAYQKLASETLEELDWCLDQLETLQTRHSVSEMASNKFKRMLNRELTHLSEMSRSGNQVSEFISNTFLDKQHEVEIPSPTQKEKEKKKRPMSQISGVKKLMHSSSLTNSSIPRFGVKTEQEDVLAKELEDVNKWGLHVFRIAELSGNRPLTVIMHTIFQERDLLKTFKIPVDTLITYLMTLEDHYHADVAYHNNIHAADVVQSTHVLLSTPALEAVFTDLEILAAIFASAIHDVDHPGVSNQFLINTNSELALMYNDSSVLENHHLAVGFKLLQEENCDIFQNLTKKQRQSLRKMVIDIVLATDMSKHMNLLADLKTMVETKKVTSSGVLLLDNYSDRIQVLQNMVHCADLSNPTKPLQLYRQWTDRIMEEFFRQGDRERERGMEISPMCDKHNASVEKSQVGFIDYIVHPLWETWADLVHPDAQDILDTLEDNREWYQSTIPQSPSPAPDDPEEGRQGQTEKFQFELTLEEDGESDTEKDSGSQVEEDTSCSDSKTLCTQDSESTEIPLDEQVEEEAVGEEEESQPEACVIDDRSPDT

| Compound | IC50 [1] | further results |
| --- | --- | --- |
| CCCOc1cc(C(=O)Nc2c(F)cccc2F)ccc1OC | 1.58 µM |  |
| COc1ccc(C(=O)Nc2ccccc2C(F)(F)F)cc1OC1CCCC1 | 3.09 µM |  |
| CCCCC(=O)c1ccc(OC)c(OC2CCOCC2)c1 | 0.72 µM |  |
| CCCC(=O)c1ccc(OC2CCOC2)c(OC)c1 (stereo not drawn) | 24 µM |  |
| CCCC(O)c1ccc(OC2CCOCC2)c(OC)c1 (stereo not drawn) | > 100 µM and 1510 µM |  |
| CCCCC(=O)c1ccc(OC2CCOCC2)c(OC)c1 | 71 µM |  |
| COc1ccc(C(=O)Nc2c(F)cccc2F)cc1OC1CCCCC1 | 0.398 µM |  |
| COc1ccc(C(=O)Nc2c(F)cccc2F)cc1O | 37.2 µM |  |
| CCCCC(=O)c1ccc(OC2CCN(C(=O)OC(C)(C)C)CC2)c(OC)c1 | 93 µM |  |
| CCCC(=O)c1ccc(OC2CCN(C(=O)OC(C)(C)C)CC2)c(OC)c1 | 29 µM |  |
| COc1ccc(C(=O)CCC2CCCCC2)cc1OC1CCOC1 (stereo not drawn) | 1.9 µM |  |
| CCCCC(=O)c1ccc(OC2CCOC2)c(OC)c1 (stereo not drawn) | 100 µM |  |
| COc1ccc(C(=O)c2cnc3ccccc3c2)cc1OC1CCOCC1 | 45 µM |  |
| CCCC(=O)c1ccc(OC)c(OC2CCOCC2)c1 | 3.5 µM | IC50 [2]: > 50 µM; IC50 [3]: > 50 µM; IC50 [4]: > 50 µM; IC50 [5]: > 50 µM |
| CCCCC(=O)c1ccc(OC)c(OC2CCOC2)c1 (stereo not drawn) | 0.22 µM |  |
| CCCC(=O)c1ccc(OC)c(OC2CCOC2)c1 (stereo not drawn) | 0.43 µM |  |
| CC(C)(C)C(=O)c1ccc(OC(F)F)c(OC2CCOC2)c1 (stereo not drawn) | 0.41 µM |  |
| COc1ccc(C(=O)CC(C)C)cc1OC1CCOC1 (stereo not drawn) | 0.19 µM and 0.178 µM |  |
| O=C(CCc1ccccc1)c1ccc(OC(F)F)c(OC(F)F)c1 | 0.82 µM |  |
| O=C(CC1CCCCC1)c1ccc(OC(F)F)c(OC(F)F)c1 | 5.2 µM |  |
| O=C(CCCc1ccccc1)c1ccc(OC(F)F)c(OC(F)F)c1 | 44 µM |  |
| COc1ccc(C(=O)CCC(C)C)cc1OC1CCOC1 (stereo not drawn) | 0.38 µM |  |
| COc1cc(C(CC(C)=O)c2cnc3ccccc3c2)ccc1Oc1ccccn1 (stereo not drawn) | 6 µM | IC50 [2]: > 50 µM; IC50 [3]: > 50 µM; IC50 [4]: > 50 µM; IC50 [5]: > 50 µM |
| COc1cc(C(CC(C)=O)c2cccnc2)ccc1O (stereo not drawn) | 80 µM |  |
| CCCCC(c1cccnc1)c1ccc(Oc2ccccn2)c(OC)c1 (stereo not drawn) | 10 µM |  |

| Compound | IC50 [1] | further results |
| --- | --- | --- |
| O=C(CCC1CCCCC1)c1ccc(OC(F)F)c(OC2CCOC2)c1 (stereo not drawn) | 1.1 µM |  |
| O=C(CCc1ccccc1)c1ccc(OC(F)F)c(OC2CCOC2)c1 (stereo not drawn) | 0.18 µM |  |
| CCCC(=O)c1ccc(OC(F)F)c(Oc2ccccn2)c1 | 40 µM |  |
| CCCC(=O)c1ccc(OC(F)F)c(OC2CCOCC2)c1 | 0.35 µM |  |
| CC(C)CC(=O)c1ccc(OC(F)F)c(OC2CCOC2)c1 (stereo not drawn) |  | IC50 (PBMC): 0.04 µM; IC50 [2]: > 50 µM; IC50 [3]: > 50 µM; IC50 [4]: > 50 µM; IC50 [5]: > 50 µM |
| COc1ccc(C(=O)Nc2c(Cl)cccc2Cl)cc1OC1CCCC1 | 0.0282 µM |  |
| COc1ccc(C(=O)Nc2ccccc2Cl)cc1OC | 0.646 µM |  |
| CCCCC(=O)c1ccc(OC(F)F)c(OC2CCN(C(=O)OC(C)(C)C)CC2)c1 | 2.2 µM |  |
| O=C(CC1CCCCC1)c1ccc(OC(F)F)c(OC2CCOC2)c1 (stereo not drawn) | 0.667 µM |  |
| O=C(CCCc1ccccc1)c1ccc(OC(F)F)c(OC2CCOC2)c1 (stereo not drawn) | 0.636 µM |  |
| COc1ccc(C(=O)CC2CCCCC2)cc1OC1CCOC1 (stereo not drawn) | 2.6 µM |  |
| CCCCC(=O)c1ccc(OC)c(OC2CCNCC2)c1 | 102 µM | solubility [6]: 800 µM (≈ 233 µg/mL) |
| CCCCC(O)c1ccc(OC2CCOC2)c(OC)c1 (stereo not drawn) | > 100 µM and 398 µM |  |
| CCCC(O)c1ccc(OC2CCOC2)c(OC)c1 (stereo not drawn) | > 100 µM and 525 µM |  |
| CCCCC(O)c1ccc(OC)c(OC2CCOC2)c1 (stereo not drawn) | 10 µM |  |
| COc1ccc(C(=O)Nc2c(F)cccc2F)cc1OC1CCCC1 | 0.0708 µM |  |
| COc1ccc(C(=O)Nc2ccccc2F)cc1OC1CCCC1 | 10.7 µM |  |
| CCCCC(O)c1ccc(OC2CCOCC2)c(OC)c1 (stereo not drawn) | > 100 µM and 537 µM |  |
| CCCCC(=O)c1ccc(OC(F)F)c(OC2CCOC2)c1 (stereo not drawn) | 0.061 µM |  |
| CCCC(=O)c1ccc(OC2CCOCC2)c(OC)c1 | 60 µM |  |
| CC(C)CC(=O)c1ccc(OC(F)F)c(OC2CCCC2)c1 | 0.028 µM | IC50 (PBMC): 0.1 µM |
| COc1ccc(C(=O)CCc2ccccc2)cc1OC1CCOC1 (stereo not drawn) | 2.6 µM |  |
| CCCC(O)(c1ccc(Oc2ccccn2)c(OC)c1)c1cnc2ccccc2c1 (stereo not drawn) | 6 µM | IC50 [2]: > 50 µM; IC50 [3]: 17 µM; IC50 [4]: 40 µM; IC50 [5]: > 50 µM |
| COc1ccc(C(=O)CCCc2ccccc2)cc1OC1CCOC1 (stereo not drawn) | 2.29 µM |  |
| COc1ccc(C(=S)Nc2c(Cl)cccc2Cl)cc1OC1CCCC1 | 0.2 µM |  |
